The values that follow are results of earlier work, collected in patent publication US6572638B1, “Method of controlling body temperature while inhibiting thermoregulatory responses” (Radiant Medical, Inc., priority 1999, dated 2003).

In the data set the test system is shivering threshold. The settings on record: patients at normal temperature warmed until sweating then cooled until shivering occurred; Talke, et al., Anesthesiology 87(4):835-841, 1997.

As for `Clc1cccc(Cl)c1N=C1NCCN1` [clonidine], the “effect on shivering threshold” value is reported as “able to lower the shivering threshold”.

Consider `Cc1cccc([C@H](C)c2cnc[nH]2)c1C` [dexmedetomidine], for which the “effect on shivering threshold” value is given as “able to lower the shivering threshold”.
